Molecular target: T1, NaV1.7 (Homo sapiens, UniProt Q15858)
T1 construct: expressed in transfected cells; host or cells: HEK293, tetracycline-inducible
Test: Whole cell patch clamp, internal block of NaV1.7 current
Type: cell-based
Details: % inhibition at 1 μM test concentration, compound in internal solution, manual whole cell patch clamp
Experimental: NaV1.7 was expressed upon induction with tetracycline. Cells were cultured in DMEM containing 10% dialyzed Fetal Bovine Serum (VWR, Radnor, Pa.), 1% Glutamax (VWR, Radnor, Pa.), 1% Penicillin-Streptomycin (VWR, Radnor, Pa.), 100 mg/L Hygromycin (Thermo Fisher Scientific, Waltham, Mass. and 5 mg/L Blasticidin (Alfa Aesar, Haverhill, Mass.). Cells were grown and maintained at 37° C. in a humidified environment containing 10% C02 in air. Cells were detached from the culture flask for passage and harvested using 0.05% Trypsin-EDTA (Thermo Fisher Scientific, Waltham, Mass.). To induce NaV1.7, cells were induced with tetracycline (0.1-1 μg/mL, IBI Scientific, Peosta, Iowa) the day before recording and plated onto 24-well plates. Cells were washed with DPBS (VWR, Radnor, Pa.), trypsinized and then triturated five times in 10 mL of growth media to break apart cell aggregates. For one 24-well plate, 2 mL of cell suspension was mixed with 23 mL of fresh growth media and 0.1-1 μg/mL tetracycline added. 1 ml of mixed media with cells was then added to each well of a 24-well plate, with a 12 mm coverslip already placed in the bottom of the well. Cells were then incubated in 37° C. and 10% CO2 overnight.
The intracellular solution contained the following (in mM) CsCl 135, NaCl 10, EGTA 10, HEPES 10, MgCl2 2, adjusted to pH 7.2 with CsOH. The external solution was a normal Ringer solution containing (in mM) NaCl 155, HEPES 10, glucose 10, KCl 3.5, CaCl2 1.5, MgCl2 1 adjusted to pH 7.4 with NaOH. CsCl is from Alfa Aesar, Haverhill, Mass. All other chemicals are from Sigma-Aldrich, St. Louis, Mo. In order to test the degree of internal block by test compounds the compounds were dissolved in internal solution at the indicated test concentration. […] In order to test the degree of external block by test compounds the compounds were dissolved in external solution at the indicated test concentration.
18-24 hours after cells were induced with tetracycline, coverslips were placed into a chamber filled with Normal Ringer solution at room temperature and the chamber placed on a microscope. Pipettes were pulled from borosilicate glass on a P97 puller (Sutter Instrument, Novato, Calif.) and polished with a MF-830 Microforge (Narishige International USA, Inc, Amityville, N.Y.) to have a resistance of 1.5-2.5 MΩ when filled with CsCl internal solution at room temperature. Healthy cells (those that are round and translucent with no visible blemishes) were chosen for seal formation. A seal was formed between the pipette and the cell, and a brief pulse of suction was used to “break in” and establish the whole-cell configuration. The membrane potential was held at −100 mV before the voltage protocol began. Only cells with series resistance between 1.5-5 MΩ were retained for analysis. The voltage protocol was as follows: Cells were held at −100 mV for 12 ms followed by a hyperpolarizing step to −105 mV for 12 ms to monitor the leak. Cells were then stepped back to −100 mV for 40 ms. Cells were then depolarized to −20 mV for 10 ms and then returned to −100 mV for 26 ms (The FIGURE).
Once the recording was started, the voltage protocol was run at 30 second intervals for 5 minutes to get a stable baseline. This was followed by four 30-second periods of 5 Hz stimulation of the same voltage protocol separated by 1 minute of rest which was then followed by 0.33 Hz stimulation after the last train. Currents were recorded using PatchMaster software with Heka EPC10 (HEKA Electronics, Lambrecht, Germany). Only cells with inward current amplitudes at −20 mV between 400 pA and 4 nA were accepted. In addition, cells having leak currents greater than 10% of their current amplitudes were discarded.
The data was plotted using the Patchmaster software (HEKA Electronics, Lambrecht, Germany) and analyzed by plotting the minimum current during the voltage step to −20 mV (peak inward current) as a function of time. […]

T1 sequence (Q15858 whole entry): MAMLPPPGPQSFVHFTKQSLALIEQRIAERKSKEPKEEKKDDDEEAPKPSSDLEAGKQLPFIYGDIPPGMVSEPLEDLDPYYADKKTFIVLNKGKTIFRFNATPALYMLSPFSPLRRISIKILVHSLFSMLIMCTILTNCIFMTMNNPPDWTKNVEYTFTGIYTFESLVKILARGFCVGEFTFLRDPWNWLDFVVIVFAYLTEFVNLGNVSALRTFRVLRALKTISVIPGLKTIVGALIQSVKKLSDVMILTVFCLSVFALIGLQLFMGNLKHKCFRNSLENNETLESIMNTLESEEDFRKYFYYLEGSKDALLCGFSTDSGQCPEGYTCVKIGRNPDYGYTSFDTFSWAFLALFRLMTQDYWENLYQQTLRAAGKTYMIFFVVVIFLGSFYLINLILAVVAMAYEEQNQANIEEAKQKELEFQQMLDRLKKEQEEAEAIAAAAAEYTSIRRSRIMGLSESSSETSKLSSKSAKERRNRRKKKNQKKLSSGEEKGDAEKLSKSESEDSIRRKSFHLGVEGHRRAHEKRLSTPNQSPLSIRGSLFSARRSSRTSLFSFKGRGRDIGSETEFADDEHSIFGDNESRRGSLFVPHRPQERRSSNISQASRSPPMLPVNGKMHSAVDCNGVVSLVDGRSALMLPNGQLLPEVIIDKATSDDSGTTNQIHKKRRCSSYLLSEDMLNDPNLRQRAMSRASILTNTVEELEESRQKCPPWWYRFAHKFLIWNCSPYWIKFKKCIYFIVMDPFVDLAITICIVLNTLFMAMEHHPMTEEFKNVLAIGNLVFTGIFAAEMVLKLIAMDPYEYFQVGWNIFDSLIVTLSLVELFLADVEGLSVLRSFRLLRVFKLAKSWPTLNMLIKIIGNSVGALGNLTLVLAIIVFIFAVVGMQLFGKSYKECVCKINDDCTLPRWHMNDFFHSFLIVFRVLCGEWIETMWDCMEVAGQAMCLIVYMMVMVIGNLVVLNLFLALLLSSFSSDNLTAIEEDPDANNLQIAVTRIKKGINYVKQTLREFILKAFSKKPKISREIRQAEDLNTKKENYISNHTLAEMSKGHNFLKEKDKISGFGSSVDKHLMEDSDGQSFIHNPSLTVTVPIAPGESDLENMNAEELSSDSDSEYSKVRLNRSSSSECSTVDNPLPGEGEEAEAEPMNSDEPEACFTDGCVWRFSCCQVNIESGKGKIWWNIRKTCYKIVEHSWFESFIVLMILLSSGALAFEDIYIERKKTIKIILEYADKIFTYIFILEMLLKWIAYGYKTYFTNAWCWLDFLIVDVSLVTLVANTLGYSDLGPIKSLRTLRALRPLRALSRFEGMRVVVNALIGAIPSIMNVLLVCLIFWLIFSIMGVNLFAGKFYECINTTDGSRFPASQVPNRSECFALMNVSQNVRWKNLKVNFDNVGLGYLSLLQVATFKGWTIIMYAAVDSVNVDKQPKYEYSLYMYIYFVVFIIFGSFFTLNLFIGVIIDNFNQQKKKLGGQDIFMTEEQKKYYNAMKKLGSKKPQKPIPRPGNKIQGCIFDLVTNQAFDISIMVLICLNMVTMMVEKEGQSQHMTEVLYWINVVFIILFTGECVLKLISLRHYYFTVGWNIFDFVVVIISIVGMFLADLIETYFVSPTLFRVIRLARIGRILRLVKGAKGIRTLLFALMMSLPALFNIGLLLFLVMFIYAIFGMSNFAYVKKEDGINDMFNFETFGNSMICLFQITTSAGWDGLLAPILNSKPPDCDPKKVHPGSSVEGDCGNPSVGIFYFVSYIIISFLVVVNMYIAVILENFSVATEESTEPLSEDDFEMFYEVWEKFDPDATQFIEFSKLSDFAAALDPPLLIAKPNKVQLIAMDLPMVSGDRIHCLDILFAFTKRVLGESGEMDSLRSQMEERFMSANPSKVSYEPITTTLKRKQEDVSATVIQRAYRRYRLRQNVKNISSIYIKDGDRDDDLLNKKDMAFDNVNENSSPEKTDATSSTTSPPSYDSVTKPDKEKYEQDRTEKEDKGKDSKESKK

| SMILES | NaV1.7 Intracellular Inhibition |
| --- | --- |
| CCCCOC(=O)C1CCC[N+](CC(=O)Nc2c(C)cccc2C(=O)OC)(Cc2ccccc2)C1.[Br-] (mixture of isomers) [Compound 14] | ++ (70-30%) |
| CCCCOC(=O)C1CCC[N+](CC)(CC(=O)Nc2c(C)cccc2C(=O)OC)C1.[I-] (mixture of isomers) [Compound 15] | ++ (70-30%) |
| CCOC(=O)C1CCC[N+](CC(=O)Nc2c(C)cccc2C(=O)OC)(Cc2ccccc2)C1 (mixture of isomers) [Compound 16] | +++ (90-70%) |
| CC[N+]1(CC(=O)Nc2c(C)cccc2C(=O)OC)CCCC(C(=O)OC2CCCCC2)C1 (mixture of isomers) [Compound 27] | ++ (70-30%) |
| CCCNC(=O)C1CCC[N+](CC(=O)Nc2c(C)cccc2C(=O)OC)(Cc2ccccc2)C1 (mixture of isomers) [Compound 28] | ++ (70-30%) |
| CNC(=O)C1CCC[N+](CC(=O)Nc2c(C)cccc2C(=O)OC)(Cc2ccccc2)C1 (mixture of isomers) [Compound 31] | ++ (70-30%) |
| COC(=O)c1cccc(C)c1NC(=O)C[N+]1(Cc2ccccc2)CCCC(C(=O)N(C)C)C1 (mixture of isomers) [Compound 40] | ++ (70-30%) |
| COC(=O)c1cccc(C)c1NC(=O)C[N+]1(Cc2ccccc2)CCCC(C(=O)N2CCCC2)C1 (mixture of isomers) [Compound 43] | ++ (70-30%) |
| CC[N+]1(CC(=O)Nc2c(C)cccc2C(=O)OC)CCCC(C(=O)N2CCCC2)C1 (mixture of isomers) [Compound 54] | ++ (70-30%) |
| CNC(=O)C[N+]1(CC(=O)Nc2c(C)cccc2C(=O)OC)CCCC(c2ccccc2)C1.[Br-] (mixture of isomers) [Compound 59] | +++ (90-70%) |
| COC(=O)c1cccc(C)c1NC(=O)C[N+]1(CC(N)=O)CCCC(c2ccccc2)C1 (mixture of isomers) [Compound 61] | +++ (90-70%) |
| CCN(CC)C(=O)C[N+]1(CC(=O)Nc2c(C)cccc2C(=O)OC)CCCC(c2ccccc2)C1 (mixture of isomers) [Compound 62] | ++ (70-30%) |
| COC(=O)C[N+]1(CC(=O)Nc2c(C)cccc2C(=O)OC)CCCC(c2ccccc2)C1 (mixture of isomers) [Compound 64] | ++ (70-30%) |
| CC[N+]1(CC(=O)Nc2c(C)cccc2C(=O)OC)CCCC(c2ccccc2)C1 (mixture of isomers) [Compound 65] | ++++ (>90%) |
| COC(=O)c1cccc(C)c1NC(=O)C[N+]1(Cc2ccccc2)CCCCCC1 [Compound 1] | ++++ (>90%) |
| CCOC(=O)c1cccc(C)c1NC(=O)C[N+]1(Cc2ccccc2)CCCCCC1 [Compound 2] | ++++ (>90%) |
| COC(=O)c1cccc(C)c1NC(=O)C[N+]1(Cc2ccccc2)CCCCC1.[Br-] [Compound 3] | ++ (70-30%) |
| CCOC(=O)c1cccc(C)c1NC(=O)C[N+]1(Cc2ccccc2)CCCCC1.[Br-] [Compound 4] | +++ (90-70%) |
| COC(=O)c1cccc(C)c1NC(=O)C[N+]1(Cc2ccccc2)CCCC1 [Compound 5] | ++ (70-30%) |
| CCCOC(=O)c1cccc(C)c1NC(=O)C[N+]1(Cc2ccccc2)CCCCCC1.[Br-] [Compound 6] | +++ (90-70%) |
| Cc1cccc(C(=O)OC(C)C)c1NC(=O)C[N+]1(Cc2ccccc2)CCCCCC1.[Br-] [Compound 7] | ++++ (>90%) |

| SMILES | NaV1.7 Intracellular Inhibition |
| --- | --- |
| CCOC(=O)c1cccc(C)c1NC(=O)C[N+]1(Cc2ccccc2)CCCC1.[Br-] [Compound 9] | +++ (90-70%) |
| CC[N+]1(CC(=O)Nc2c(C)cccc2C(=O)OC)CCCC(C(=O)OCC(C)C)C1.[I-] (stereo not shown) [Compound 23] | +++ (90-70%) |
| CCCOC(=O)C1CCC[N+](CC)(CC(=O)Nc2c(C)cccc2C(=O)OC)C1.[I-] (stereo not shown) [Compound 26] | ++ (70-30%) |
| COC(=O)c1cccc(C)c1NC(=O)C[N+]1(Cc2ccccc2)CCCC(C(N)=O)C1.[Br-] (stereo not shown) [Compound 30] | ++ (70-30%) |
| COC(=O)c1cccc(C)c1NC(=O)C[N+]1(Cc2ccccc2)CCCC(C(=O)NC(C)C)C1.[Br-] (stereo not shown) [Compound 32] | ++ (70-30%) |
| CCNC(=O)C1CCC[N+](CC(=O)Nc2c(C)cccc2C(=O)OC)(Cc2ccccc2)C1.O=C([O-])C(F)(F)F (stereo not shown) [Compound 33] | ++ (70-30%) |
| COC(=O)c1cccc(C)c1NC(=O)C[N+]1(Cc2ccccc2)CCCC(C(=O)N2CCCCCC2)C1.[Br-] (stereo not shown) [Compound 34] | ++ (70-30%) |
| COC(=O)c1cccc(C)c1NC(=O)C[N+]1(Cc2ccccc2)CCCC(C(=O)NCC(C)C)C1.[Br-] (stereo not shown) [Compound 36] | ++ (70-30%) |
| COC(=O)c1cccc(C)c1NC(=O)C[N+]1(Cc2ccccc2)CCCC(C(=O)NC2CCCC2)C1.[Br-] (stereo not shown) [Compound 41] | + (<30%) |
| CC[N+]1(CC(=O)Nc2c(C)cccc2C(=O)OC)CCCC(C(=O)N2CCCCC2)C1.[I-] (stereo not shown) [Compound 45] | ++ (70-30%) |
| CC[N+]1(CC(=O)Nc2c(C)cccc2C(=O)OC)CCCC(C(=O)NC)C1.[I-] (stereo not shown) [Compound 46] | + (<30%) |
| CC[N+]1(CC(=O)Nc2c(C)cccc2C(=O)OC)CCCC(C(N)=O)C1.[I-] (stereo not shown) [Compound 55] | +++ (90-70%) |
| CC[N+]1(CC(=O)Nc2c(C)cccc2C(=O)OC)CCCC(C(=O)NC2CCCCC2)C1.[I-] (stereo not shown) [Compound 56] | ++ (70-30%) |
| CCc1cccc(C[N+]2(C(CC)C(=O)Nc3c(C)cccc3C(=O)OC)CCCCC2)c1.O=C[O-] (stereo not shown) [Compound 58] | +++ (90-70%) |
| COC(=O)c1cccc(C)c1NC(=O)C[N+]1(CC(=O)N(C)C)CCCC(c2ccccc2)C1.O=C([O-])C(F)(F)F (stereo not shown) [Compound 60] | ++ (70-30%) |
| CCOC(=O)C[N+]1(CC(=O)Nc2c(C)cccc2C(=O)OC)CCCC(c2ccccc2)C1.O=C([O-])C(F)(F)F (stereo not shown) [Compound 63] | +++ (90-70%) |
| COC(=O)c1cccc(C)c1NC(=O)C[n+]1cccc(-c2ccccc2)c1.[Br-] [Compound 66] | +++ (90-70%) |
| CCOC(=O)c1cccc(C)c1NC(=O)C[n+]1cccc(-c2ccccc2)c1 [Compound 67] | +++ (90-70%) |
| COC(=O)c1cccc(C)c1NC(=O)C[n+]1cccn1C1CCCCC1.[Br-] [Compound 69] | ++ (70-30%) |
| Cc1cccc(C(=O)OC(C)(C)C)c1NC(=O)C[n+]1cccc(-c2ccccc2)c1.[Br-] [Compound 71] | ++ (70-30%) |
| Cc1cccc(C(=O)OC(C)(C)C)c1NC(=O)C[n+]1cccn1C1CCCCC1.[Br-] [Compound 72] | ++ (70-30%) |

Same assay, conditions: % inhibition at 1 μM test concentration, compound in internal solution, manual whole cell patch clamp; read-out: NaV1.7 Intracellular Inhibition

| SMILES | inhibition at 1 µM |
| --- | --- |
| CCC(C(=O)Nc1c(C)cccc1C(=O)OC)[N+]1(Cc2ccccc2)CCCCC1 (stereo not shown) [Compound 57] | 30 to 70% |
